Laboratory results: patent US20210330756A1, “Acetylation of Miro1” (University of South Carolina, priority 2020, published 2021)

Columns and labels:
Type in all cases: cell-based, rat
[1] = test system: axonal mitochondria of DRG neurons; assay: Live cell imaging of axonal mitochondrial movement in cultured DRG neurons
Description: HDAC6 inhibition was previously shown to increase transport of mitochondria in axons of embryonic rodent hippocampal and chick sensory neurons (Chen et al., 2010; Kim et al., 2012; Rui and Zheng, 2016; Sainath et al., 2017), and axonal mitochondrial transport has been linked to axon growth (Steketee et al., 2012; Cartoni et al., 2016; Lewis et al., 2016; Zhou et al., 2016). By live cell imaging with MitoTracker to visualize mitochondria, DRG neurons appeared to show increased anterograde versus retrograde mitochondrial movement along axons (FIG. 3 at A and B). […] (A and B) Representative images from CALI time lapse sequence are shown for DRGs cultured on laminin and treated with vehicle control (DMSO) versus 10 μM TubA for 1 h (A). BFP is shown in blue as an axonal marker and Mito-KR signal is shown in red. Boxed regions represent ROI for distal axon and growth cone that was subjected to photoactivation of Mito-KR to ablate mitochondria. […] (C and D) Quantifications of percentage of axons retracting (C) and retraction distance (D) from image sequences as in A are shown as average±SEM (n≥13 across three culture preparations; ***, P≤0.005 by one-way ANOVA with Bonferroni post hoc analysis). (E) Recovery of Mito-KR red fluorescence in photoactivated ROI from image sequences as in A is shown as average of normalized percentage recovery±SEM (n≥13 axons from three independent experiments; *, P≤0.05; **, P≤0.01; ***, P≤0.005 vs. t=0; ###, P≤0.005; ####, P≤0.001, #####, P≤0.0005 for TubA vs. control; and NS vs. t=0 s by one-way ANOVA with Bonferroni post hoc analysis). […]
Quantification of growth cone mitochondria was performed using high-magnification images from living neurons transfected with either Mito-KR or incubated with MitoTracker. […] Only mitochondria that could be distinguished as a single mitochondrion were counted; if this was not possible, that growth cone was not included in the analysis. […]
Vesicle trafficking was quantified using differential ImageJ Difference Tracker Plug-in (Andrews et al., 2010). […] Movement of ≥0.5 μm toward the axon shaft was counted as retracted. […]

[2] = test system: adult DRG neurons; assay: Axon growth of DRG neurons on laminin or substrate-bound aggrecan (CSPG); conditions: 10 μM TubA, 24 h
Description: (§1) MAG and CSPGs are more often tested as surface-bound substrates than with the bath applications used here. Thus, we tested whether bath application of growth inhibitors would cause growth cone retraction in a manner similar to surface-bound inhibitors. […] RhoA activation is a well-known downstream mediator for the growth-inhibitory effects of both MAG and CSPGs (Fujita and Yamashita, 2014), so we tested whether the RhoA/ROCK pathway contributes to the impact of aggregan on mitochondria distribution in growth cones.
MAG or Aggrecan exposures were performed as bath application or on coated substrates. For bath application, dissociated DRGs were cultured for 48 h and treated with 25 μg/ml of MAG-Fc (R&D Systems; 538-MG), 25 μg/ml Fc control (R&D Systems; 110-HG), or 10 μg/ml of Aggrecan (Sigma-Aldrich; A1960) for 4 h. Cultures were pretreated with either Ca^2+ chelator BAPTA-AM (3 μM; Sigma-Aldrich; A1076), ROCK inhibitor Y27632 (10 μM; Sigma-Aldrich; SCM075), HDAC6 inhibitor TubA (10 μM; R&D Systems; 6270), Thapsigargin (1 μM; Sigma-Aldrich; T9033), Rho Activator II (1 μg/ml; Cytoskeleton; CNO3), or equivalent volume DMSO 30 min before MAG-Fc, Aggrecan, or controls. […]
NF-stained cultures were used for neurite growth analyses. […] The growth cone area was measured using ImageJ software from these annotated DIC images. […]

[3] = test system: growth cones of DRG neurons; assay: Growth cone retraction after bath-applied growth inhibitors; conditions: 10 μM TubA
Description: as §1
MAG or Aggrecan exposures were performed as bath application or on coated substrates. For bath application, dissociated DRGs were cultured for 48 h and treated with 25 μg/ml of MAG-Fc (R&D Systems; 538-MG), 25 μg/ml Fc control (R&D Systems; 110-HG), or 10 μg/ml of Aggrecan (Sigma-Aldrich; A1960) for 4 h. Cultures were pretreated with either Ca^2+ chelator BAPTA-AM (3 μM; Sigma-Aldrich; A1076), ROCK inhibitor Y27632 (10 μM; Sigma-Aldrich; SCM075), HDAC6 inhibitor TubA (10 μM; R&D Systems; 6270), Thapsigargin (1 μM; Sigma-Aldrich; T9033), Rho Activator II (1 μg/ml; Cytoskeleton; CNO3), or equivalent volume DMSO 30 min before MAG-Fc, Aggrecan, or controls. For substrate-bound experiments, adult DRGs were cultured on glass bottom dishes (Greiner) that were coated with 25 μg/ml Aggrecan in addition to the laminin/poly-D-lysine substrate.

## CN1CCc2c(c3ccccc3n2Cc2ccc(C(=O)NO)cc2)C1 [TubA, tubastatin]
[1]; 10 μM TubA, 1 h vs vehicle
  mitochondrial profiles in growth cones: significant increase in mitochondrial profiles in the growth cones
[1]; HDAC6-inhibited (10 μM TubA) vs control, laminin
  speed, track durations, directionality of axonal mitochondrial movements: no significant differences
[1]; HDAC6-inhibited cultures
  anterogradely vs retrogradely moving mitochondria in axons: more anterogradely than retrogradely moving mitochondria
[2]
  effect on attenuation of axon growth by substrate-bound aggrecan: prevented by TubA exposure
[3]
  effect on aggrecan-induced growth cone retraction: prevented by application of TubA
